Measured values: ChEMBL document CHEMBL1140175, “Synthesis and evaluation of novel boron-containing complexes of potential use for the selective treatment of malignant melanoma” (J Med Chem, 2008)
The source made the active and inactive calls. The rule behind the calls is not given here.

Experiments:
[1] = target: T1, Tyrosinase (Agaricus bisporus) (UniProt O42713); test: Binding affinity to mushroom tyrosinase assessed as […]
T1 sequence (whole entry): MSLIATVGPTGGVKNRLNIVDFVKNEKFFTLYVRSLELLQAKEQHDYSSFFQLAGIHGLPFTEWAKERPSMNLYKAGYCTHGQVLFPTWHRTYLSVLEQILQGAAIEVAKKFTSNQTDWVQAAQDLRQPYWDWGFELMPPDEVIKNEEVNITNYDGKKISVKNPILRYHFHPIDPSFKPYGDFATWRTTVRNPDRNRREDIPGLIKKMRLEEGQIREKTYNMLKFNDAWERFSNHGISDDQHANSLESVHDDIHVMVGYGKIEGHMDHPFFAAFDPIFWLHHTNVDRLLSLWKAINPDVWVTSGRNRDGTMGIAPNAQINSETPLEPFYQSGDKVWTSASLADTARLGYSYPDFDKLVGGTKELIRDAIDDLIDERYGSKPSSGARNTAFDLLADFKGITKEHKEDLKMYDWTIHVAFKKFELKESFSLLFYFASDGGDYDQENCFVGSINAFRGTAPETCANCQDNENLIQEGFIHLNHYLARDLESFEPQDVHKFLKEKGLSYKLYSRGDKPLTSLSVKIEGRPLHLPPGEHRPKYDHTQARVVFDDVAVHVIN

[2] = Cellular uptake in human SK-MEL-23 cells assessed as boron content at 50 uM after 6 hrs relative to control; assay type: ADME, cell-based
[3] = Cellular uptake in human SK-MEL-23 cells assessed as boron content at 50 uM after 2 hrs relative to control; assay type: ADME, cell-based
[4] = Cytotoxicity against human SK-MEL-23 cells assessed as LDH release up to 100 uM after 6 hrs by colorimetric assay; assay type: functional
[5] = Cellular uptake in human SK-MEL-23 cells assessed as boron content at 50 uM relative to control; assay type: ADME, cell-based
MCF7 = test: Cytotoxicity against human MCF7 cells assessed as LDH release up to 100 uM after 6 hrs by colorimetric assay; assay type: functional

| Compound | Activity [1] | Activity [2] | Activity [3] | Activity [4] | Activity [5] | Activity (MCF7) |
| --- | --- | --- | --- | --- | --- | --- |
| O=C1O[B-]2([NH2+][C@H]1Cc1c[nH]c3ccc(O)cc13)C1CCCC2CCC1 (some centres undefined) | inactive |  |  |  |  |  |
| O=C1O[B-]2([NH2+][C@H]1Cc1ccccc1)C1CCCC2CCC1 (some centres undefined) | inactive |  |  |  |  |  |
| O=C1O[B-]2([NH2+][C@H]1Cc1ccc(O)c(O)c1)C1CCCC2CCC1 (some centres undefined) | Active |  |  |  |  |  |
| O=C1O[B-]2([NH2+][C@H]1Cc1ccc(O)cc1)C1CCCC2CCC1 (some centres undefined) | Active | > 50% | 50% | <5% | Not Active | <5% |
